This is an account of results in article PMC4980245 (Environmental and molecular mutagenesis, 2016).

A short description of series [1]: Precipitation/solubility limit of the top test concentration. Particulars: for top non-precipitating conc.: precipitation in 100× stock solution or upon addition to culture medium.
A further series deals with γH2AX. Kind of series: MultiFlow DNA Damage Kit flow cytometry, γH2AX in TK6 cells with rat liver S9. Particulars: 4 hr exposure with 2% rat liver S9. The class given is cell-based. A general note: In flow cytometry, cells or beads pass a laser one at a time.
Another series relates to p53. The class given is cell-based. Particulars: 24 hr time point; TK6 cells, 4 hr exposure with 2% rat liver S9.
The subject of the next series is Phospho-Histone H3. Briefly: MultiFlow DNA Damage Kit flow cytometry, phospho-histone H3. Particulars: TK6 cells with rat liver S9; effect particularly evident at 24 hrs for PhIP. The class given is cell-based.
Series [2] deals with TK6 cells. Kind of series: MultiFlow flow cytometry, polyploidy. Particulars: TK6 cells with rat liver S9. It is filed as cell-based.
In a further series the test system is HepG2 cells. Particulars: cited from earlier work.
The subject of the next series is male rat kidney. The conditions noted are these: due to α2μ-globulin nephropathy; ref Kirkland et al., 2015; cited from earlier work.
Series [3] concerns TK6 cells. Kind of series: Cytotoxicity by relative nuclei counts. It is filed as cell-based. The conditions noted are these: TK6 cells with rat liver S9.

In series [1], `CC(=O)Nc1ccc2c(c1)Cc1ccccc1-2` [2-Acetylaminofluorene] displayed a top non-precipitating conc. of 250 µM.

`Nc1ccc2cc3ccccc3cc2c1` [2-Aminoanthracene]: in series [1], the top non-precipitating conc. was found to be 500 µM.

Turning to `O=[N+]([O-])c1ccc2c(c1)Cc1ccccc1-2` [2-Nitrofluorene], the γH2AX-associated fluorescence response result in the series on γH2AX (4 hr time point) is given as “robust responses”; in the series with γH2AX (24 hr time point), “considerably reduced”.

Regarding `Cn1c(N)nc2ncc(-c3ccccc3)cc21` [2-amino-1-methyl-6-phenylimidazo [4,5-b]pyridine], in the series with p53, the p53 response result is given as “higher p53 responses at 24 hr relative to the 4 hr time point”. Further, the “proportion of mitotic (p-H3 positive) cells” value in the series with Phospho-Histone H3 is given as “concentration-dependent reductions”. In series [1], this molecule registered a top non-precipitating conc. of 250 µM. In addition, the γH2AX-associated fluorescence response result with γH2AX (4 hr time point) and with γH2AX (24 hr time point) was “concentration-related increases” each time. Moreover, the polyploid cells entry in the series with TK6 cells [2] is reported as “not induced”.

`Cc1cc2ncccc2c2nc(N)n(C)c12` [3,4-Dimethylimidazo[4,5-f]quinolin-2-amine]: the “induction of MN in HepG2 cells” value in the series on HepG2 cells was “weak inducer”.

`c1ccc2c(c1)cc1ccc3cccc4ccc2c1c34` [Benzo[a]pyrene] showed a top non-precipitating conc. in series [1] of 250 µM.

`C=C(C)[C@H]1CC=C(C)CC1` [D-Limonene]: the tumor finding entry in the series on male rat kidney is recorded as “male rat kidney tumors”.

Turning to `CN(C)P(=O)(N(C)C)N(C)C` [Hexamethylphosphoramide], the “proportion of mitotic (p-H3 positive) cells” value with Phospho-Histone H3 is reported as “no evidence of cytotoxicity”. Further, in the series with TK6 cells [3], the “cytotoxicity (reductions to RNC)” value was “no evidence of cytotoxicity”.

In the case of `CCN(CC)N=O` [N-Nitrosodiethylamine (DEN), N-Nitrosodiethylamine], in the series on Phospho-Histone H3, the “proportion of mitotic (p-H3 positive) cells” value is given as “no evidence of cytotoxicity”. Further, in the series with TK6 cells [3], the “cytotoxicity (reductions to RNC)” value is recorded as “no evidence of cytotoxicity”.

On to Tunicamycin, for which the “top conc. due to solubility” value in series [1] came out at 500 µM.
